We go through 65 compounds from article PMC6627609, “Targeting Quorum Sensing: High-Throughput Screening to Identify Novel LsrK Inhibitors” (International Journal of Molecular Sciences, 2019).

Structures can show the parent of a compound that is named as a salt.

Broadly, the inhibition is the change of the read-out against control, counted positive when it falls. As a reminder, the IC50 is the concentration at which inhibition is half-maximal. A lower IC50 goes with higher potency.

For one assay, the target named is LsrK (Salmonella typhimurium, UniProt Q8ZKQ6). Description: biochemical. Type of assay: biochemical, S. typhimurium.
Sequence of LsrK (Q8ZKQ6 whole entry): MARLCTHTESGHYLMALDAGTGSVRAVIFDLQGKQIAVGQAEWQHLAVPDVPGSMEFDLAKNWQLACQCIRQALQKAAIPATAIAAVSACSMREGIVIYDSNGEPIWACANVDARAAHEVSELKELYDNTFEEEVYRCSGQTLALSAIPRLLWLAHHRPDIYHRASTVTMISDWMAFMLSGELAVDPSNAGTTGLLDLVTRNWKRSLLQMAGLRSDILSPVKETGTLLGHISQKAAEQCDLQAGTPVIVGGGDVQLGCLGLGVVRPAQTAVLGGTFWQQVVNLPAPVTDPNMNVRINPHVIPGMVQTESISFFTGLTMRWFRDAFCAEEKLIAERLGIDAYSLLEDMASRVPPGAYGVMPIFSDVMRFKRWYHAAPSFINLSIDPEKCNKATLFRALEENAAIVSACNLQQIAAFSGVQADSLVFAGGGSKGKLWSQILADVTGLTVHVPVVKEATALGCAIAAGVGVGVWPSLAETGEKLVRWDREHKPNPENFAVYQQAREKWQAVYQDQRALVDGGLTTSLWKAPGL
Details: not given
With `COc1ccccc1N1CCN(CCCNc2cc(=O)n(C)c(=O)n2C)CC1` [URAPIDIL HYDROCHLORIDE], the inhibition at 50 µM was found to be 1%.
For `CC(=O)OC[C@@]1(O)C[C@@]23CC[C@@H]4c5ccoc5CC[C@@]4(C)[C@@H]2CC[C@@H]1C3` [CAFESTOL ACETATE], the inhibition at 50 µM turned out to be 1%.
Take `CC(C)n1c(/C=C/C(O)CC(O)CC(=O)O)c(-c2ccc(F)cc2)c2ccccc21` (stereo not drawn) [FLUVASTATIN]: the inhibition at 50 µM turned out to be 6%.
`CCC1(CC)C(=O)NC(=O)NC1=O` [BARBITAL]: the inhibition at 50 µM was 1%.
Still for that read-out and setting: in the case of `C#C[C@]1(O)CC[C@H]2[C@@H]3CCc4cc(O)ccc4[C@H]3CC[C@@]21C` [ETHINYL ESTRADIOL] it was 1%; in that of `c1ccc2c(c1)sc1ccccc12` [DIBENZOTHIOPHENE], 0%.
For the compound `CC(C)Oc1ccc2c(=O)c(-c3ccccc3)coc2c1` [IPRIFLAVONE], the inhibition at 50 µM was determined as 2%.
For `C/C=C(\C)C(=O)O[C@H]1[C@H](OC(C)=O)[C@@]2(CO)C(CC1(C)C)C1=CC[C@@H]3[C@@]4(C)CC[C@H](O[C@@H]5O[C@H](C(=O)O)[C@@H](O[C@@H]6O[C@H](CO)[C@@H](O)[C@H](O)[C@H]6O)[C@H](O)[C@H]5O[C@@H]5O[C@H](CO)[C@@H](O)[C@H](O)[C@H]5O)[C@H](CO)C4CC[C@@]3(C)[C@@]1(C)C[C@H]2O` (stereo partly drawn) [beta-ESCIN], the inhibition at 50 µM worked out at 129%.
Same read-out and setting: the result for `CC1=C(/C=C/C(C)=C/C=C/C(C)=C/C=C/C=C(C)/C=C/C=C(C)/C=C/C2=C(C)C(=O)[C@@H](O)CC2(C)C)C(C)(C)C[C@H](O)C1=O` [ASTAXANTHIN] reads 1%; that for `Cc1c(C(=O)O)c(O)cc2c1C(=O)c1c(O)c([C@@H]3O[C@H](CO)[C@@H](O)[C@H](O)[C@H]3O)c(O)c(O)c1C2=O` [CARMINIC ACID], 6%.
With `Cc1cc(O)c(C=O)c2c1C(=O)Oc1c(COC(=O)/C=C/C(=O)O)c(O)c(C(=O)O)c(C)c1O2` [FUMARPRO[…]], the IC50 was found to be 7 µM and the inhibition at 50 µM is 150%.
Consider `Clc1ccc(C(Cn2ccnc2)OCc2ccsc2Cl)c(Cl)c1` (stereo not drawn) [TIOCONAZOLE], for which the inhibition at 50 µM is 2%.
Consider `O=C(O)CC[N+](=O)[O-]` [BOVINOCIDIN (3-nitropropionic acid), 3-nitropropionic acid], for which the inhibition at 50 µM was 5%.
The same measure, in the same setting: in the case of `CCCCCCCCCCOc1cc2c(O)c(C(=O)OCC)cnc2cc1OCC` [DECOQUINATE] it was 36%.
On to `C=C1C[C@H]2[C@@H]3C=C(C)C4=CC(=O)CC[C@]4(C)[C@H]3CC[C@]2(C)[C@@]1(OC(C)=O)C(C)=O` [MELENGESTROL ACETATE], for which the inhibition at 50 µM turned out to be 1%.
For `CCOC(=O)c1cncn1[C@H](C)c1ccccc1` [ETOMIDATE], the inhibition at 50 µM is 2%.
Turning to `CN(C)[C@@H]1C(O)=C(C(N)=O)C(=O)[C@@]2(O)C(O)=C3C(=O)c4c(O)cccc4[C@@](C)(O)[C@H]3[C@H](O)[C@@H]12` [OXYTETRACYCLINE], the inhibition at 50 µM was found to be 94%.
With `CN(C)CCCO[C@@H]1[C@H]2OC(C)(C)O[C@H]2O[C@@H]1[C@H](O)CO` [AMIPRILOSE], the inhibition at 50 µM came to 2%.
On to `CN(C)/N=N/c1[nH]cnc1C(N)=O` [DACARBAZINE], for which the inhibition at 50 µM came out at 3%.
Consider `C[C@@H]1[C@H](O)[C@@H](C)/C=C/C=C/C=C/C=C/C=C/C=C/C=C/[C@H](O[C@@H]2O[C@H](C)[C@@H](O)[C@H](N)[C@@H]2O)C[C@@H]2O[C@](O)(C[C@@H](O)C[C@@H](O)[C@H](O)CC[C@@H](O)C[C@@H](O)CC(=O)O[C@H]1C)C[C@H](O)[C@H]2C(=O)O` [AMPHOTERICIN B], for which the inhibition at 50 µM came to 61%.
As to `S=c1[nH]cnc2nc[nH]c12` [MERCAPTOPURINE], the inhibition at 50 µM amounted to 1%.
`Cc1cccc(C)c1NC(=O)C1CCCCN1C` (stereo not drawn) [MEPIVACAINE HYDROCHLORIDE]: the inhibition at 50 µM was determined as 15%.
Turning to `O=c1c(-c2ccc(O)cc2)coc2cc(O)cc(O)c12` [GENISTEIN], the inhibition at 50 µM worked out at 2%.
In the case of `CCCCC1=NC2(CCCC2)C(=O)N1Cc1ccc(-c2ccccc2-c2nnn[nH]2)cc1` [IRBESARTAN], the inhibition at 50 µM was 10%.
For the compound `CCOC(=O)N1CCC(=C2c3ccc(Cl)cc3CCc3cccnc32)CC1` [LORATADINE], the inhibition at 50 µM was found to be 2%.
As for `C1CCc2nnnn2CC1` [PENTYLENETETRAZOL], the inhibition at 50 µM is 0%.
Same read-out and setting: the result for `O=c1c(O)c(-c2cc(O)c(O)c(O)c2)oc2cc(O)cc(O)c12` [MYRICETIN] reads 14%; that for `CC(C)[C@H](N)C(=O)OCCOCn1cnc2c(=O)[nH]c(N)nc21` [VALACYCLOVIR HYDROCHLORIDE], 2%; that for `COc1c(-c2coc3cc4c(cc3c2=O)CC(O)C(C)(C)O4)ccc2c1C=CC(C)(C)O2` (stereo not drawn) [MUNDULONE], 0%.
Regarding `Cc1ccc(-c2cc(C(F)(F)F)nn2-c2ccc(S(N)(=O)=O)cc2)cc1` [CELECOXIB], the inhibition at 50 µM worked out at 1%.
Regarding `Cn1nnnc1SCC1=C(C(=O)O)N2C(=O)[C@@H](NC(=O)[C@H](OC=O)c3ccccc3)[C@H]2SC1` [CEFAMANDOLE NAFATE], the inhibition at 50 µM amounted to 1%.
In the case of `CC(=O)OCC(=O)[C@@]1(O)CC[C@H]2[C@@H]3CCC4=CC(=O)C=C[C@]4(C)[C@H]3[C@@H](O)C[C@@]21C` [PREDNISOLONE ACETATE], the inhibition at 50 µM was found to be 0%.
As to `Cc1cc(O)c(C)c(O)c1C(=O)O` [3-METHYL[…]], the inhibition at 50 µM stood at 1%.
The same measure, in the same setting: in the case of `NCCc1ccc(O)c(O)c1` [DOPAMINE HYDROCHLORIDE] it was 2%.
Still for that read-out and setting: the result for `O=c1oc2c(O)c(O)cc3c(=O)oc4c(O)c(O)cc1c4c23` [ELLAGIC ACID] reads 7%; that for `C[C@@H]1O[C@@H](O[C@H]2[C@H](Oc3cc(O)c4c(=O)cc(-c5ccc(O)cc5)oc4c3)O[C@H](CO)[C@@H](O)[C@@H]2O)[C@H](O)[C@H](O)[C@H]1O` [RHOIFOLIN], 2%.
With `O=C1c2c(O)cccc2C([C@@H]2O[C@H](CO)[C@@H](O)[C@H](O)[C@H]2O)c2cc(CO)cc(O)c21` (stereo partly drawn) [ALOIN], the inhibition at 50 µM amounted to 45%.
With `C[C@]12CC[C@H](O)C[C@H]1CC[C@@H]1[C@@H]2C[C@@H](O)[C@]2(C)[C@@H](C3=CC(=O)OC3)CC[C@]12O` [DIGOXIGENIN], the inhibition at 50 µM came out at 2%.
For the compound `CC(Cc1cccc(C(F)(F)F)c1)NCCOC(=O)c1ccccc1` (stereo not drawn) [BENFLUOREX HYDROCHLORIDE], the inhibition at 50 µM worked out at 4%.
Take `CN(C)c1nc(N(C)C)nc(N(C)C)n1` [ALTRETAMINE]: the inhibition at 50 µM was 19%.
Same read-out and setting: the result for `CC(C)NCC(O)COc1ccc(COCCOC(C)C)cc1` (stereo not drawn) [BISOPROLOL FUMARATE] reads 0%; that for `CO[C@H]1C[C@H](O[C@@H]2/C(C)=C/C[C@@H]3C[C@@H](C[C@]4(CC[C@H](C)[C@@H](C5CCCCC5)O4)O3)OC(=O)[C@@H]3C=C(C)/C(=N/O)[C@H]4OC/C(=C\C=C\[C@@H]2C)[C@]43O)O[C@@H](C)[C@@H]1O` [SELAMECTIN], 0%; that for `O=C(c1ccccc1)c1ccc2n1CCC2C(=O)O` (stereo not drawn) [KETOROLAC TROMETHAMINE], 0%.
As for `C[C@@H]1O[C@@H](O[C@H]2CC[C@]3(C=O)[C@H]4CC[C@]5(C)[C@@H](C6=CC(=O)OC6)CC[C@]5(O)[C@@H]4CC[C@]3(O)C2)[C@H](O)[C@H](O)[C@H]1O` [CONVALLATOXIN], the inhibition at 50 µM came out at 1%.
In the case of `NC(CO)C(=O)NNCc1ccc(O)c(O)c1O` (stereo not drawn) [BENSERAZIDE HYDROCHLORIDE], the inhibition at 50 µM was found to be 97%.
For `CC(C)(O/N=C(\C(=O)N[C@@H]1C(=O)N2C(C(=O)[O-])=C(C[n+]3ccccc3)CS[C@H]12)c1csc(N)n1)C(=O)O` [CEFTAZIDIME], the inhibition at 50 µM came to 70%.
Same read-out and setting: in the case of `CN(C)C(=S)SSC(=S)N(C)C` [THIRAM] it was 104%; in that of `Nc1nc2c(c(=O)[nH]1)N=C(CNc1ccc(C(=O)N[C@@H](CCC(=O)O)C(=O)O)cc1)CN2` [DIHYDROFOLIC ACID], 49%.

The same assay, now with this note: 50 µM.
On to BENZALKONIUM CHLORIDE, for which the “Inhibition (%)” value is recorded as 121.
On to `O=C(/C=C/c1ccccc1)c1ccc(O[C@@H]2O[C@H](CO)[C@@H](O)[C@H](O)[C@H]2O)cc1O` [2'.4'-DIHYDROXYCHALCONE 4'-GLUCOSIDE], for which the “Inhibition (%)” value came to 2.
As for BERBAMINE HYDROCHLORIDE, the “Inhibition (%)” value is 1.
Consider AGELASINE, for which the “Inhibition (%)” value was determined as 102.
Still for that read-out and setting: in the case of `O=c1cc(-c2ccccc2O)oc2cc(O)ccc12` [7.2'-DIHYDROXYFLAVONE] it was 76.
Regarding `NC(=O)c1cc([N+](=O)[O-])cc([N+](=O)[O-])c1` [NITROMIDE], the “Inhibition (%)” value is on record as 1.
Take `O=c1cc(-c2ccc(O)cc2)oc2cc(O)ccc12` [7.4'-DIHYDROXYFLAVONE]: the “Inhibition (%)” value is on record as 1.
Consider `CO/N=C(/C(=O)N[C@@H]1C(=O)N2C(C(=O)[O-])=C(CSc3nc(=O)c([O-])nn3C)CS[C@H]12)c1csc(N)n1.O.O.O.[Na+].[Na+]` [CEFTRIAXONE SODIUM TRIHYDRATE], for which the “Inhibition (%)” value is on record as 0.
On to `CC(C)=CCC/C(C)=C/CC/C(C)=C/CC/C(C)=C/CC/C(C)=C/CC/C(C)=C/CC/C(C)=C/CC/C(C)=C/CC/C(C)=C/CO` [SOLANESOL], for which the “Inhibition (%)” value is given as 1.
`O=C(O)C(S)C(S)C(=O)O` (stereo not drawn) [2.3-DIMERCAPTOSUCCINIC ACID]: the “Inhibition (%)” value was 88.
Turning to `O=C([O-])c1ccccc1-c1c2cc(Br)c(=O)cc-2oc2[c]([Hg+])c([O-])c(Br)cc12.[Na+].[Na+].[OH-]` [MERBROMIN], the “Inhibition (%)” value was determined as 119.
Regarding `CC1=C(/C=C/C(C)=C/C=C/C(C)=C\C(=O)O)C(C)(C)CCC1` [ISOTRETINON], the “Inhibition (%)” value worked out at 1.
`Cl.Cl.NCCNCCNCCN` [TRIENTINE HYDROCHLORIDE]: the “Inhibition (%)” value is recorded as 13.
Regarding `CC(=O)Oc1c(C)cccc1C(=O)O` [CRESOPIRINE], the “Inhibition (%)” value was found to be 1.
On to HECOGENIN, for which the “Inhibition (%)” value is reported as 2.
Regarding `O=C(O[C@@H]1Cc2c(O)cc(O)cc2O[C@@H]1c1ccc(O)c(O)c1)c1cc(O)c(O)c(O)c1` [EPICATECHIN MONOGALLATE], the “Inhibition (%)” value turned out to be 86.
Consider `O=C(Oc1cc(O)cc2c1C[C@@H](OC(=O)c1cc(O)c(O)c(O)c1)[C@@H](c1cc(O)c(O)c(O)c1)O2)c1cc(O)c(O)c(O)c1` [EPIGALLOCATECHIN 3.5-DIGALLATE], for which the “Inhibition (%)” value stood at 88.
